The results in this text go back to US20120058085A1, “Deuterium Modified Benzimidazoles” (priority 2009, published 2012).

Structures are written as SMILES. Where two headings read alike, the source gives them in different places.

The data set in a line: Evaluation of Metabolic Stability in Human Liver Microsomes. Format: in vitro ADME. The settings on record: for percentage increase in half-life in going from clemizole to the test compound, Average / percentage increase in half-life in going from clemizole to the test compound, run A / percentage increase in half-life in going from clemizole to the test compound, run B / percentage increase in half-life in going from clemizole to the test compound, run C / percentage increase in half-life in going from clemizole to the test compound, run D: HLM, relative to clemizole; for half-life: human, microsomes. The method, then:
Human liver microsomes (20 mg/mL) are obtained from Xenotech, LLC (Lenexa, KS). β-nicotinamide adenine dinucleotide phosphate, reduced form (NADPH), magnesium chloride (MgCl2), and dimethyl sulfoxide (DMSO) are purchased from Sigma-Aldrich.
Determination of Metabolic Stability: 7.5 mM stock solutions of test compounds are prepared in DMSO. The 7.5 mM stock solutions are diluted to 12.5 μM in acetonitrile (ACN). The 20 mg/mL human liver microsomes are diluted to 0.625 mg/mL in 0.1 M potassium phosphate buffer, pH 7.4, containing 3 mM MgCl2. The diluted microsomes (375 μL) are added to wells of a 96-well deep-well polypropylene plate in triplicate. Ten to 40 μL of the 12.5 μM test compound is added to the microsomes and the mixture is pre-warmed for 10 minutes. Reactions are initiated by addition of 125 μL of pre-warmed NADPH solution. The final reaction volume is 0.5 mL and contains 0.5 mg/mL human liver microsomes, 0.25-1.0 μM test compound, and 2 mM NADPH in 0.1 M potassium phosphate buffer, pH 7.4, and 3 mM MgCl2. The reaction mixtures are incubated at 37° C., and 50 μL aliquots are removed at 0, 5, 10, 20, and 30 minutes and added to shallow-well 96-well plates which contain 50 μL of ice-cold ACN with internal standard to stop the reactions. The plates are stored at 4° C. for 20 minutes after which 100 μL of water is added to the wells of the plate before centrifugation to pellet precipitated proteins. Supernatants are transferred to another 96-well plate and analyzed for amounts of parent compound remaining by LC-MS/MS using an Applied Bio-systems API 4000 mass spectrometer. The same procedure is followed for the non-deuterated counterpart of the compound of Formula I and the positive control, 7-ethoxycoumarin (1 μM). Testing is done in triplicate.
Data analysis: The in vitro half-lives (t1/2s) for test compounds are calculated from the slopes of the linear regression of % parent remaining (In) vs incubation time relationship using the following formula:
in vitro t1/2=0.693/k, where k=-[slope of linear regression of % parent remaining(1n) vs incubation time]
Data analysis is performed using Microsoft Excel Software.
Four separate metabolic stability runs were performed in Human Liver Microsomes (HLM) for clemizole and for test compounds of the invention. […] The values in parenthesis in columns A through D and in the “Average” column indicate the percentage increase in half-life in going from clemizole to the test compound.
On the technique in general: Liver microsomes are a subcellular fraction often used to study metabolism.

The mark [1] stands for this setting: pH 7.4, HLM 0.5 mg/mL, 2 mM NADPH, 37° C., run A, read-out: t½ (min) A.
The mark [2] stands for this setting: pH 7.4, HLM 0.5 mg/mL, 2 mM NADPH, 37° C., run B, read-out: t½ (min) B.
[3] abbreviates: pH 7.4, HLM 0.5 mg/mL, 2 mM NADPH, 37° C., run C, read-out: t½ (min) C.
Setting [4] is: pH 7.4, HLM 0.5 mg/mL, 2 mM NADPH, 37° C., run D, read-out: t½ (min) D.
The mark [5] stands for this setting: pH 7.4, HLM, average of runs A-D, read-out: Ave t½.

For `[2H]C([2H])(c1ccc(Cl)cc1)n1c(CN2CCCC2)nc2ccccc21` [Compound 100, 1-(4-Chlorophenyl-d2-methyl)-2-(pyrrolidin-1-ylmethyl)-1H-benzo[d]imid-azole], where the note is “average of runs A-D”, the “percentage increase in half-life in going from clemizole to the test compound, Average” value is on record as “(+4%)”. In addition, where the note is “run A”, the “percentage increase in half-life in going from clemizole to the test compound, run A” value (“percentage increase in half-life … run A” below) was “(+2%)”. Further, the “percentage increase in half-life in going from clemizole to the test compound, run B” value (“percentage increase in half-life … run B” below) (run B) was “(+0.3%)”. For the same compound, under “run C”, the “percentage increase in half-life in going from clemizole to the test compound, run C” value (“percentage increase in half-life … run C” below) is on record as “(+4%)”. Besides, the “percentage increase in half-life in going from clemizole to the test compound, run D” value (“percentage increase in half-life … run D” below) (run D) is reported as “(+13%)”. In addition, the half-life was determined as 13.7 min under setting [1]; 14.1 min under setting [2]; 13.8 min under setting [3]; 13.8 min under setting [4]; 13.9 min under setting [5].

As for `[2H]C([2H])(c1nc2ccccc2n1Cc1ccc(Cl)cc1)N1CCCC1` [Compound 101, 1-(4-Chlorobenzyl)-2-(d2-(pyrrolidin-1-yl)methyl)-1H-benzo[d]imidazole], under “run A”, the “percentage increase in half-life … run A” value is recorded as “(+18%)”. Further, the “percentage increase in half-life … run B” value (run B) is listed as “(+8%)”. For the same compound, the “percentage increase in half-life … run C” value (run C) is “(+9%)”. The “percentage increase in half-life … run D” value (run D) is “(+14%)”. In addition, the half-life came out at 15.9 min under setting [1]; 15.2 min under setting [2]; 14.4 min under setting [3]; 14 min under setting [4]; 14.9 min under setting [5].

Consider `[2H]C1([2H])N(Cc2nc3ccccc3n2Cc2ccc(Cl)cc2)C([2H])([2H])C([2H])([2H])C1([2H])[2H]` [Compound 102, 1-(4-Chlorobenzyl)-2-((2,2,3,3,4,4,5,5-d8-pyrrolidin-1-yl)methyl)-1H-benzo[d]imidazole], for which the “percentage increase in half-life … run A” value (run A) is recorded as “(+41%)”. In addition, the “percentage increase in half-life … run B” value (run B) is listed as “(+38%)”. Moreover, the “percentage increase in half-life … run C” value (run C) is listed as “(+32%)”. The “percentage increase in half-life … run D” value (run D) is on record as “(+36%)”. In addition, the half-life is, setting by setting: under setting [1], 18.9 min; under setting [2], 19.4 min; under setting [3], 17.6 min; under setting [4], 16.7 min; under setting [5], 18.2 min.

Consider `[2H]C1([2H])CCC([2H])([2H])N1Cc1nc2ccccc2n1Cc1ccc(Cl)cc1` [Compound 104], for which the “percentage increase in half-life … run A” value (run A) is listed as “(+15%)”. For the same compound, where the note is “run B”, the “percentage increase in half-life … run B” value is “(+16%)”. For the same compound, the “percentage increase in half-life … run C” value (run C) is recorded as “(+17%)”. Also, the “percentage increase in half-life … run D” value (run D) is “(+27%)”. Further, the half-life reads like this: under setting [1], 15.5 min; under setting [2], 16.3 min; under setting [3], 15.5 min; under setting [4], 15.6 min; under setting [5], 15.7 min.

Take `[2H]C([2H])(c1nc2ccccc2n1C([2H])([2H])c1ccc(Cl)cc1)N1CCCC1` [Compound 105, 1-(4-Chlorophenyl-d2-methyl)-2-(d2-(pyrrolidin-1-yl)methyl)-1H-benzo[d]imidazole]: the “percentage increase in half-life in going from clemizole to the test compound, Average” value (average of runs A-D) was “(+6%)”. Also, the “percentage increase in half-life … run A” value (run A) is recorded as “(+0.9%)”. Besides, the “percentage increase in half-life … run B” value (run B) is listed as “(+6%)”. Also, the “percentage increase in half-life … run C” value (run C) was “(+6%)”. Further, for the setting “run D”, the “percentage increase in half-life … run D” value is “(+13%)”. Further, the half-life is 13.6 min under setting [1]; 14.9 min under setting [2]; 14 min under setting [3]; 13.9 min under setting [4]; 14 min under setting [5].

For `[2H]C([2H])(c1ccc(Cl)cc1)n1c(CN2C([2H])([2H])C([2H])([2H])C([2H])([2H])C2([2H])[2H])nc2ccccc21` [Compound 106], the “percentage increase in half-life … run A” value (run A) is given as “(+21%)”. Besides, the “percentage increase in half-life … run B” value (run B) is reported as “(+22%)”. Besides, the “percentage increase in half-life … run C” value (run C) is recorded as “(+22%)”. Besides, the “percentage increase in half-life … run D” value (run D) is on record as “(+36%)”. The half-life by setting is: under setting [1], 16.2 min; under setting [2], 17.2 min; under setting [3], 16.2 min; under setting [4], 16.7 min; under setting [5], 16.6 min.

With `[2H]C([2H])(c1nc2ccccc2n1C([2H])([2H])c1ccc(Cl)cc1)N1C([2H])([2H])C([2H])([2H])C([2H])([2H])C1([2H])[2H]` [Compound 110, 1-(4-Chlorophenyl-d2-methyl)-2-(d2-(2,2,3,3,4,4,5,5-d8-pyrrolidin-1-yl)methyl)-1H-benzo[d]imidazole], the “percentage increase in half-life … run A” value (run A) was “(+18%)”. Further, under “run B”, the “percentage increase in half-life … run B” value is listed as “(+30%)”. Besides, for the setting “run C”, the “percentage increase in half-life … run C” value is listed as “(+34%)”. In addition, the “percentage increase in half-life … run D” value (run D) was “(+38%)”. Besides, the half-life under setting [1] turned out to be 15.8 min; the half-life under setting [2] turned out to be 18.2 min; the half-life under setting [3] came to 17.8 min; the half-life under setting [4] came out at 17 min; the half-life under setting [5] worked out at 17.2 min.

Consider `Clc1ccc(Cn2c(CN3CCCC3)nc3ccccc32)cc1` [clemizole, 1-(p-chlorobenzyl)-2-(1-pyrrolidinylmethyl) benzimidazole, reference compound], for which the half-life under setting [1] amounted to 13.5 min; the half-life under setting [2] is 14 min; the half-life under setting [3] came to 13.3 min; the half-life under setting [4] came to 12.3 min; the half-life under setting [5] is 13.3 min.
